Where a name gives a salt, the structure may show the parent alone.
These compounds were tested against SHP2 (Homo sapiens (Human), UniProt Q06124) (assay: SHP2 Biochemical Assay (DiFMUP conversion, pIRS1 activating peptide)). Details: not given.
Chain of SHP2 (Q06124 whole entry): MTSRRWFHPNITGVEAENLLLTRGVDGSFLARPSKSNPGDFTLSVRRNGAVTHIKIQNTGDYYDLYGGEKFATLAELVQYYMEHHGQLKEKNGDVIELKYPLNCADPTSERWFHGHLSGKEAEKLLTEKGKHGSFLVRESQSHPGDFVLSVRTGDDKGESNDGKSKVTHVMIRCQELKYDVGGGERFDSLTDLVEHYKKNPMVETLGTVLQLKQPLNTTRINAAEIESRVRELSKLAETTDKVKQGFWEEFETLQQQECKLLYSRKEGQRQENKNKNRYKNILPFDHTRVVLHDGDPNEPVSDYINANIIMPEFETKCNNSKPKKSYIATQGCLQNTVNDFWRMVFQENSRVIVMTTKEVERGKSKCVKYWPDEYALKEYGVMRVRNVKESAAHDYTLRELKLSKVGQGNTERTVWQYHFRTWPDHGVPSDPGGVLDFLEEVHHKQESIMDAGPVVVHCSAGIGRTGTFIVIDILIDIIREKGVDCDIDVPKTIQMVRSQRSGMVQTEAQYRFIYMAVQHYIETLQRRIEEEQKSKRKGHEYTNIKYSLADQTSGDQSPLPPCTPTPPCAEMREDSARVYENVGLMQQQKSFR
`Cc1nc2ccc(-c3c[nH]c4nc(N5[C@@H]6CC[C@H]5C[C@@H](N)C6)cnc34)c(Cl)c2c(=O)n1C` [Example 52, 6-{3-[endo-3-amino-8-azabicyclo[3.2.1]octan-8-yl]-5H-pyrrolo[2,3-b]pyrazin-7-yl}-5-chloro-2,3-dimethyl-3,4-dihydroquinazolin-4-one, methanesulfonic acid salt] was tested, and the IC50 was 13 nM. `Cn1cnc2ccc(-c3c[nH]c4nc(N5[C@@H]6CC[C@H]5[C@@H](F)[C@@H](N)C6)cnc34)c(Cl)c2c1=O` [Example 77, 6-{3-[(1S,2S,3S,5R)-3-amino-2-fluoro-8-azabicyclo[3.2.1]octan-8-yl]-5H-pyrrolo[2,3-b]pyrazin-7-yl}-5-chloro-3-methyl-3,4-dihydroquinazolin-4-one] gave an IC50 of 18 nM. Work on `COc1cnc2ccc(-c3n[nH]c4nc(N5[C@@H]6CC[C@H]5[C@@H](F)[C@@H](N)C6)c(C)nc34)c(Cl)c2n1` [Example 121, (1S,2S,3S,5R)-8-[3-(5-chloro-3-methoxyquinoxalin-6-yl)-5-methyl-1H-pyrazolo[3,4-b]pyrazin-6-yl]-2-fluoro-8-azabicyclo[3.2.1]octan-3-amine] yielded an IC50 of 14 nM.

Same assay, conditions: DiFMUP substrate, 0.25 μM pIRS1 peptide, 30 min pre-incubation; average where more than one data point; read-out: SHP2 (IC50)
For `CN(C)c1nc2ccc(-c3c[nH]c4nc(N5[C@@H]6CC[C@H]5C[C@@H](N)C6)cnc34)c(Cl)c2s1` [Example 18, 6-{3-[endo-3-amino-8-azabicyclo[3.2.1]octan-8-yl]-5H-pyrrolo[2,3-b]pyrazin-7-yl}-7-chloro-N,N-dimethyl-1,3-benzothiazol-2-amine, hydrochloride salt], the IC50 was 13 nM. `Cn1cc2c(Cl)c(-c3n[nH]c4nc(N5[C@H]6CC[C@@H]5[C@@H](F)[C@@H](N)C6)c(CO)nc34)ccc2n1` [Example 79, {6-[(1R,2S,3S,5S)-3-amino-2-fluoro-8-azabicyclo[3.2.1]octan-8-yl]-3-(4-chloro-2-methyl-2H-indazol-5-yl)-1H-pyrazolo[3,4-b]pyrazin-5-yl}methanol] gave an IC50 of 9.1 nM. In the case of `Cc1nc2c(-c3ccc4ncc(N5CCOCC5)nc4c3Cl)n[nH]c2nc1N1[C@H]2CC[C@@H]1[C@@H](F)[C@@H](N)C2` [Example 148, (1R,2S,3S,5S)-8-{3-[5-chloro-3-(morpholin-4-yl)quinoxalin-6-yl] 5-methyl-1H-pyrazolo[3,4-b]pyrazin-6-yl}-2-fluoro-8-azabicyclo[3.2.1]octan-3-amine], the IC50 is reported as 25 nM. Compound `COc1cnc2ccc(-c3n[nH]c4nc(N5[C@H]6CC[C@@H]5[C@@H](F)[C@@H](N)C6)c(CO)nc34)c(Cl)c2n1` [Example 84, {6-[(1R,2S,3S,5S)-3-amino-2-fluoro-8-azabicyclo[3.2.1]octan-8-yl]-3-(5-chloro-3-methoxyquinoxalin-6-yl)-1H-pyrazolo[3,4-b]pyrazin-5-yl}methanol] has an IC50 of 7.4 nM. In the case of `CC(C)n1nc2ccc(-c3n[nH]c4nc(N5[C@H]6CC[C@@H]5[C@@H](F)[C@@H](N)C6)c(CO)nc34)c(Cl)c2c1C#N` [Example 149, 5-{6-[(1R,2S,3S,5S)-3-amino-2-fluoro-8-azabicyclo[3.2.1]octan-8-yl]-5-(hydroxymethyl)-1H-pyrazolo[3,4-b]pyrazin-3-yl}-4-chloro-2-(propan-2-yl)-2H-indazole-3-carbonitrile], the IC50 is reported as 14 nM. With `Cn1cc2c(Cl)c(-c3c[nH]c4nc(N5[C@@H]6CC[C@H]5C[C@@](C)(N)C6)cnc34)ccc2n1` [Example 8, endo-8-[7-(4-chloro-2-methyl-2H-indazol-5-yl)-5H-pyrrolo[2,3-b]pyrazin-3-yl]-3-methyl-8-azabicyclo[3.2.1]octan-3-amine, methanesulfonic acid salt] the IC50 was 17 nM. Work on `Cn1cc2c(Cl)c(-c3c[nH]c4nc(N5CC[C@@H](N)[C@H](F)C5)cnc34)ccc2n1` [Example 29, (3R,4R)-1-[7-(4-chloro-2-methyl-2H-indazol-5-yl)-5H-pyrrolo[2,3-b]pyrazin-3-yl]-3-fluoropiperidin-4-amine, hydrochloride salt] yielded an IC50 of 41 nM. `Cn1nc2ccc(-c3n[nH]c4nc(N5[C@@H]6CC[C@H]5[C@@H](F)[C@@H](N)C6)c(CO)nc34)c(Cl)c2c1Cl` [Example 85, {6-[(1S,2S,3S,5R)-3-amino-2-fluoro-8-azabicyclo[3.2.1]octan-8-yl]-3-(3,4-dichloro-2-methyl-2H-indazol-5-yl)-1H-pyrazolo[3,4-b]pyrazin-5-yl}methanol] was tested, and the IC50 was 7.5 nM. `Cn1nc2ccc(-c3c[nH]c4nc(N5[C@@H]6CC[C@H]5C[C@@H](N)C6)cnc34)c(Cl)c2c1CC#N` [Example 61, 2-(5-{3-[endo-3-amino-8-azabicyclo[3.2.1]octan-8-yl]-5H-pyrrolo[2,3-b]pyrazin-7-yl}-4-chloro-2-methyl-2H-indazol-3-yl)acetonitrile] showed an IC50 of 130 nM. `Cc1nc2c(-c3ccc4nn(C)cc4c3Cl)n[nH]c2nc1N1CC[C@H](N)[C@H](F)C1` [Example 75, (3R,4S)-1-[3-(4-chloro-2-methyl-2H-indazol-5-yl)-5-methyl-1H-pyrazolo[3,4-b]pyrazin-6-yl]-3-fluoropiperidin-4-amine, hydrochloride] gave an IC50 of 130 nM. `N[C@H]1C[C@@H]2CC[C@H]([C@H]1F)N2c1nc2[nH]nc(-c3ccc4ncsc4c3Cl)c2nc1CO` [Example 114, {6-[(1R,2S,3S,5S)-3-amino-2-fluoro-8-azabicyclo[3.2.1]octan-8-yl]-3-(7-chloro-1,3-benzothiazol-6-yl)-1H-pyrazolo[3,4-b]pyrazin-5-yl}methanol] gave an IC50 of 3 nM. Work on `CC(C)(O)Cn1cc2c(Cl)c(-c3c[nH]c4nc(N5[C@@H]6CC[C@H]5C[C@@H](N)C6)cnc34)ccc2n1` [Example 53, 1-(5-{3-[endo-3-amino-8-azabicyclo[3.2.1]octan-8-yl]-5H-pyrrolo[2,3-b]pyrazin-7-yl}-4-chloro-2H-indazol-2-yl)-2-methylpropan-2-ol] yielded an IC50 of 29 nM. `CCn1cc2c(Cl)c(-c3c[nH]c4nc(N5[C@@H]6CC[C@H]5C[C@H](N)C6)cnc34)ccc2n1` [Example 28, exo-8-[7-(4-chloro-2-ethyl-2H-indazol-5-yl)-5H-pyrrolo[2,3-b]pyrazin-3-yl]-8-azabicyclo[3.2.1]octan-3-amine, hydrochloride salt] showed an IC50 of 9.6 nM. For `CCOc1cnc2ccc(-c3n[nH]c4nc(N5[C@H]6CC[C@@H]5[C@@H](F)[C@@H](N)C6)c(C)nc34)c(Cl)c2n1` [Example 139, (1R,2S,3S,5S)-8-[3-(5-chloro-3-ethoxyquinoxalin-6-yl)-5-methyl-1H-pyrazolo[3,4-b]pyrazin-6-yl]-2-fluoro-8-azabicyclo[3.2.1]octan-3-amine], the IC50 was 22 nM. In the case of `Cn1cc2c(Cl)c(-c3c[nH]c4nc(N5[C@@H]6CC[C@H]5C[C@H](N)C6)cnc34)ccc2n1` [Example 2, exo-8-[7-(4-chloro-2-methyl-2H-indazol-5-yl)-5H-pyrrolo[2,3-b]pyrazin-3-yl]-8-azabicyclo[3.2.1]octan-3-amine], the IC50 is reported as 8.1 nM. `CN(C)c1cnc2ccc(-c3n[nH]c4nc(N5[C@H]6CC[C@@H]5[C@@H](F)[C@@H](N)C6)c(CO)nc34)c(Cl)c2n1` [Example 118, {6-[(1R,2S,3S,5S)-3-amino-2-fluoro-8-azabicyclo[3.2.1]octan-8-yl]-3-[5-chloro-3-(dimethylamino)quinoxalin-6-yl]-1H-pyrazolo[3,4-b]pyrazin-5-yl}methanol] was tested, and the IC50 was 5.3 nM. `Cn1nc2ccc(-c3c[nH]c4nc(N5[C@@H]6CC[C@H]5C[C@H](N)C6)cnc34)c(Cl)c2c1Cl` [Example 41, exo-8-[7-(3,4-dichloro-2-methyl-2H-indazol-5-yl)-5H-pyrrolo[2,3-b]pyrazin-3-yl]-8-azabicyclo[3.2.1]octan-3-amine, hydrochloride salt] was tested, and the IC50 was 3.6 nM. Work on `COc1cnc2ccc(-c3c[nH]c4nc(N5[C@@H]6CC[C@H]5C[C@@H](N)C6)cnc34)c(Cl)c2n1` [Example 107, endo-8-[7-(5-chloro-3-methoxyquinoxalin-6-yl)-5H-pyrrolo[2,3-b]pyrazin-3-yl]-8-azabicyclo[3.2.1]octan-3-amine, hydrochloride] yielded an IC50 of 22 nM. With `Cn1cc2c(Cl)c(-c3c[nH]c4nc(N5CC[C@H](N)[C@@H](F)C5)cnc34)ccc2n1` [Example 30, (3S,4S)-1-[7-(4-chloro-2-methyl-2H-indazol-5-yl)-5H-pyrrolo[2,3-b]pyrazin-3-yl]-3-fluoropiperidin-4-amine, hydrochloride salt] the IC50 was 150 nM. Compound `Cn1cc2c(Cl)c(-c3c[nH]c4nc(N5CC[C@@H](N)[C@@H](F)C5)cnc34)ccc2n1` [Example 32, (3S,4R)-1-[7-(4-chloro-2-methyl-2H-indazol-5-yl)-5H-pyrrolo[2,3-b]pyrazin-3-yl]-3-fluoropiperidin-4-amine, hydrochloride salt] has an IC50 of 56 nM. In the case of `Cn1nc2ccc(-c3n[nH]c4nc(N5[C@H]6CC[C@@H]5[C@@H](F)[C@@H](N)C6)c(CO)nc34)c(F)c2c1Br` [Example 105, {6-[(1R,2S,3S,5S)-3-amino-2-fluoro-8-azabicyclo[3.2.1]octan-8-yl]-3-(3-bromo-4-fluoro-2-methyl-2H-indazol-5-yl)-1H-pyrazolo[3,4-b]pyrazin-5-yl}methanol], the IC50 is reported as 8.9 nM. `N[C@H]1C[C@H]2CC[C@@H](C1)N2c1cnc2c(-c3ccc4ncsc4c3Cl)c[nH]c2n1` [Example 13, endo-8-[7-(7-chloro-1,3-benzothiazol-6-yl)-5H-pyrrolo[2,3-b]pyrazin-3-yl]-8-azabicyclo[3.2.1]octan-3-amine, methanesulfonic acid salt] showed an IC50 of 6.2 nM. In the case of `Cc1nc2c(-c3ccc4nn(C)cc4c3Cl)[nH]nc2nc1N1[C@@H]2CC[C@H]1CC(N)C2` (stereo partly drawn) [Example 48, endo-8-[3-(4-Chloro-2-methyl-2H-indazol-5-yl)-5-methyl-1H-pyrazolo[3,4-b]pyrazin-6-yl]-8-azabicyclo[3.2.1]octan-3-amine, hydrochloride salt], the IC50 is reported as 17 nM. With `CCn1nc2ccc(-c3n[nH]c4nc(N5[C@H]6CC[C@@H]5[C@@H](F)[C@@H](N)C6)c(CO)nc34)c(Cl)c2c1Cl` [Example 103, {6-[(1R,2S,3S,5S)-3-amino-2-fluoro-8-azabicyclo[3.2.1]octan-8-yl]-3-(3,4-dichloro-2-ethyl-2H-indazol-5-yl)-1H-pyrazolo[3,4-b]pyrazin-5-yl}methanol] the IC50 was 8.9 nM. `Cn1cc2c(Cl)c(-c3c[nH]c4nc(N5[C@@H]6CC[C@H]5[C@H](F)[C@@H](N)C6)cnc34)ccc2n1` [Example 65, (1S,2R,3S,5R)-8-[7-(4-chloro-2-methyl-2H-indazol-5-yl)-5H-pyrrolo[2,3-b]pyrazin-3-yl]-2-fluoro-8-azabicyclo[3.2.1]octan-3-amine] showed an IC50 of 37 nM.
